Values of other authors, collected in US20240274231A1, “Method, System and Computer Program Product for Determining Peptide Immunogenicity” (MyNeo NV, priority 2020, published 2024).
Read-outs that look alike come from different tables or passages of the source.

Tested on: CD8+ T cell responses
Conditions: stimulated IFN gamma ELISpot, peptide specific CD8+ T-cell responses among eleven evaluable breast cancer patients, vaccine plus poly-ICLC

In the case of “SLFRAVITK [MAGGE-A196-104, HLA-A3 MAGE-A196-104 vaccine peptide]”, the ELISpot is given as 1 borderline and the ELISpot (listed as MAGE-A196-104) is given as “borderline response”.
